Experimental findings from patent US20200246316A1, “METHODS OF TREATING POST-SURGICAL PAIN WITH A THIAZOLINE ANTI-HYPERALGESIC AGENT” (CERSCI THERAPEUTICS, INC., priority 2019, published 2020) are described below.

Counter-ions that a name gives are not always drawn.

Data set [1] is described as follows: Cytotoxicity by lactate dehydrogenase (LDH) release. Format: cell-based. To be noted: dog, MDCKII control cells, read-out: percent cytotoxicity (LDH release). For orientation: LDH in the medium is a marker of cell lysis.
Data set [2] in a line: Solubility in organic/aqueous solvents. Format: physicochemical. Here is the method: Polymorphic screening of crystalline Compound 1 was performed using 15 organic/aqueous solvent systems, including: n-heptane, methanol, toluene, acetone, tetrahydrofuran, iso-propanol, ethanol, ethyl acetate, iso-propyl acetate, tert-butylmethyl ether, […], 10% water/90% tetrahydrofuran, tert-butyl alcohol, water, and 1:1 tert-butyl alcohol:water.

Data set [3] deals with T1, OCT (Homo sapiens, UniProt O15245).
T1 construct: expressed in transfected cells; host or cells: HEK293 cells
In words: Inhibition of uptake (SLC) transporters. It counts as in vitro ADME. The conditions noted are these: OCT1; HEK293 cells, probe [14C]-tetraethylammonium bromide (5 μM), 0.3-600 μM tested.

T1 sequence (O15245 whole entry): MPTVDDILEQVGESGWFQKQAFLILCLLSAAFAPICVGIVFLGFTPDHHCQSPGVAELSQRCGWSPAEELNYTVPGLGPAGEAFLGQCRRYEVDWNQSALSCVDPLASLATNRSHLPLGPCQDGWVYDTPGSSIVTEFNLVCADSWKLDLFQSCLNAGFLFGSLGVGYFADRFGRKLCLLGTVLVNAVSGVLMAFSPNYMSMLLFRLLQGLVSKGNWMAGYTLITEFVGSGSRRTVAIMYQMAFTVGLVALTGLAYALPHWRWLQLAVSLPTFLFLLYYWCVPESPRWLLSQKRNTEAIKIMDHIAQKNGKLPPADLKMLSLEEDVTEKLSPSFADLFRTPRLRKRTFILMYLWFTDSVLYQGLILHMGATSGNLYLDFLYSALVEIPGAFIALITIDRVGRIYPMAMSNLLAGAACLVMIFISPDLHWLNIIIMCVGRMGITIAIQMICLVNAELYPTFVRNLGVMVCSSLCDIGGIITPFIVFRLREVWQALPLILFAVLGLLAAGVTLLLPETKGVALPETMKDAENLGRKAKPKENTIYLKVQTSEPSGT

A word on the IC50: it is the concentration at which inhibition is half-maximal. On to `CC1(C)SC(Nc2ccccc2O)=N[C@@H]1C(=O)O` [Compound 1, (R)-2-(2-hydroxyphenylamino)-5,5-dimethyl-4,5-dihydrothiazole-4-carboxylic acid mono-hydrochloride], for which, in data set [1] (100 μM), the cytotoxicity at 100 µM was 31.3%. Moreover, the cytotoxicity at 600 µM in data set [1] (600 μM) amounted to 33.6%. Further, the solubility entry in data set [2] (10% water/tetrahydrofuran) was “sparingly soluble”; in data set [2] (10% water:iso-propyl acetate) it was “sparingly soluble”; in data set [2] (acetone), “less than sparingly soluble”; in data set [2] (ethanol) it was “sparingly soluble”; in data set [2] (ethyl acetate), “less than sparingly soluble”; in data set [2] (iso-propanol) it was “sparingly soluble”. The solubility entry in data set [2] (iso-propyl acetate) was “less than sparingly soluble”; in data set [2] (methanol), “freely soluble”; in data set [2] (n-heptane), “less than sparingly soluble”; in data set [2] (tert-butyl alcohol), “less than sparingly soluble”; in data set [2] (tert-butyl alcohol:water (1:1)) it was “freely soluble”; in data set [2] (tert-butyl methyl ether), “less than sparingly soluble”. Also, the solubility result is “less than sparingly soluble” in data set [2] (tetrahydrofuran), “less than sparingly soluble” in data set [2] (toluene) and “sparingly soluble” in data set [2] (water). The molecule further returned an IC50 in data set [3] of over 600 µM.
